Strand notation (5' to 3'): a small letter for the sugar, then the base; units joined by * are phosphorothioate-linked, units joined directly phosphodiester-linked; [ ] holds rarer units or linkages, { } end groups; capitals alone tell only the bases. k = constrained ethyl (cEt); [5mC] = 5-methylcytosine; d = 2'-deoxy (DNA)
Columns and labels:
[1] = Tolerability in Balb/c mice, body and organ weights (Example 11); type: in vivo; details: 50 mg/kg subcutaneously twice a week for four weeks, end of study
Method: (§1) Groups of male Balb/c mice at 4-6 weeks of age (obtained from Taconic) were injected subcutaneously twice a week for four weeks (for a total of 8 treatments) with 50 mg/kg of modified oligonucleotides. One group of male Balb/c mice was injected with PBS. Mice were euthanized on day 26 post start of treatment (24 hours following the final administration).
(§2) Body weights of Balb/c mice were measured at the end of the study, and the average body weight for each group is presented in the table below. Modified oligonucleotides that caused any changes in organ weights outside the expected range for modified oligonucleotides were excluded from further studies.

[2] = Tolerability in Balb/c mice, plasma chemistry markers (Example 11); type: in vivo; details: 50 mg/kg subcutaneously twice a week for four weeks
Method: (§3) Balb/c mice were treated with modified oligonucleotides selected from studies described above and evaluated for changes in the levels of various plasma chemistry markers.
as §1

Yap1 mRNA [3] = test: Dose-dependent inhibition of human Yap1 in A-431 cells (Example 6, 5,000 cells per well, RTS4814); type: cell-based; details: for % UTC 148 nM / % UTC 444 nM / % UTC 1333 nM / % UTC 4000 nM: approximately 48 hours; for Yap1 mRNA, % UTC: 48 hours
In short: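 A-431 cells (5,000/well) took up oligonucleotides by free uptake at various doses for about 48 h. Yap1 mRNA was measured by RT-PCR (RTS4814), normalised to RIBOGREEN total RNA and expressed as % untreated control; IC50 by linear regression on a log/linear plot.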

[4] = Tolerability in Balb/c mice, plasma chemistry markers (Example 12); type: in vivo; details: 50 mg/kg subcutaneously twice a week for four weeks
Method: as §3
(§4) Groups of male Balb/c mice at 6-7 weeks of age (obtained from Taconic) were injected subcutaneously twice a week for four weeks (for a total of 8 treatments) with 50 mg/kg of modified oligonucleotides. One group of male Balb/c mice was injected with PBS. Mice were euthanized on day 26 post start of treatment (24 hours following the final administration).

Yap1 mRNA [5] = test: Dose-dependent inhibition of human Yap1 in SNU-449 cells (Example 9, RTS36584); type: cell-based; details: free uptake; for % UTC (Yap1 mRNA): approximately 48 hours
In short: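 Read-out was Yap1 mRNA (primer-probe RTS36584) normalised to total RNA by RIBOGREEN, given as % of untreated cells, with IC50 fitted by linear regression of log/linear data. Oligonucleotides were dosed by free uptake to SNU-449 cells, 10,000/well, for ~48 h.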

[6] = Tolerability in Balb/c mice, body and organ weights (Example 12); type: in vivo; details: male Balb/c mice, 50 mg/kg s.c. twice a week for four weeks (8 treatments), end of study (day 26)
Method: as §4, §2

Yap1 mRNA [7] = test: Dose-dependent inhibition of human Yap1 in A-431 cells (Example 7, 10,000 cells per well, RTS36584); type: cell-based; details: free uptake, approximately 48 hours; for Yap1 mRNA, % UTC: A-431 cells, 10,000 cells per well
In short: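 Yap1 mRNA was expressed as percent of untreated control after normalization to total RNA (RIBOGREEN), and IC50 was derived by log/linear linear regression. The read-out used primer-probe set RTS36584 roughly 48 hours after free-uptake dosing of oligonucleotides into A-431 cells (10,000 cells/well).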

[8] = Table 53, A-431 cells, Yap1 mRNA, linear regression on a log/linear plot
[9] = Table 53, A-431 cells, free uptake, 148 nM, RTS4814
[10] = Table 53, A-431 cells, free uptake, 444 nM, RTS4814
[11] = Table 53, A-431 cells, free uptake, 1333 nM, RTS4814
[12] = Table 53, A-431 cells, free uptake, 4000 nM, RTS4814
[13] = Table 54, A-431 cells, Yap1 mRNA, linear regression on a log/linear plot
[14] = Table 54, A-431 cells, free uptake, 148 nM, RTS4814
[15] = Table 54, A-431 cells, free uptake, 444 nM, RTS4814
[16] = Table 54, A-431 cells, free uptake, 1333 nM, RTS4814
[17] = Table 54, A-431 cells, free uptake, 4000 nM, RTS4814
[18] = Table 55, 148 nM, free uptake, A-431 cells 5,000 cells per well, RTS4814
[19] = Table 55, 444 nM, free uptake, A-431 cells 5,000 cells per well, RTS4814
[20] = Table 55, 1333 nM, free uptake, A-431 cells 5,000 cells per well, RTS4814
[21] = Table 55, 4000 nM, free uptake, A-431 cells 5,000 cells per well, RTS4814
[22] = Table 55, A-431 cells 5,000 cells per well, free uptake, RTS4814

Row | Substance | Kidney weight [1] [g] | Liver weight [1] [g] | Spleen weight [1] [g] | body weight [1] [g] | ALT [2] [U/L] | AST [2] [U/L] | BUN [2] [mg/dL] | TBIL [2] [mg/dL] | IC50 (Yap1 mRNA [3]; [13]) [µM] | % UTC 148 nM (Yap1 mRNA [3]; [14]) [% UTC] | % UTC 444 nM (Yap1 mRNA [3]; [15]) [% UTC] | % UTC 1333 nM (Yap1 mRNA [3]; [16]) [% UTC] | % UTC 4000 nM (Yap1 mRNA [3]; [17]) [% UTC] | Yap1 mRNA, % UTC (Yap1 mRNA [3]; [18]) [% UTC] | Yap1 mRNA, % UTC (Yap1 mRNA [3]; [19]) [% UTC] | Yap1 mRNA, % UTC (Yap1 mRNA [3]; [20]) [% UTC] | Yap1 mRNA, % UTC (Yap1 mRNA [3]; [21]) [% UTC] | IC50 (Yap1 mRNA [3]; [22]) [µM] | also measured
1 | 715415 (k[5mC]*kG*kA*dA*d[5mC]*dA*dT*dG*d[5mC]*dT*dG*dT*dG*kG*kA*kG; antisense) [compound 715415] | 0.40 | 1.79 | 0.17 | 25 | 1075 | 701 | 17 | 0.14 | – | – | – | – | – | – | – | – | – | – | IC50 (Yap1 mRNA [3]; [8]): 1.8 µM; % UTC 148 nM (Yap1 mRNA [3]; [9]): 84 % UTC; % UTC 444 nM (Yap1 mRNA [3]; [10]): 59 % UTC; % UTC 1333 nM (Yap1 mRNA [3]; [11]): 55 % UTC; % UTC 4000 nM (Yap1 mRNA [3]; [12]): 42 % UTC
2 | 715473 (kT*k[5mC]*kT*dT*dT*dA*dT*d[5mC]*dT*dA*dG*d[5mC]*dT*kT*kG*kG; antisense) [compound 715473] | 0.31 | 1.46 | 0.09 | 20 | 3046 | 2861 | 20 | 2.77 | – | – | – | – | – | – | – | – | – | – | IC50 (Yap1 mRNA [3]; [8]): 1.3 µM; % UTC 148 nM (Yap1 mRNA [3]; [9]): 89 % UTC; % UTC 444 nM (Yap1 mRNA [3]; [10]): 67 % UTC; % UTC 1333 nM (Yap1 mRNA [3]; [11]): 50 % UTC; % UTC 4000 nM (Yap1 mRNA [3]; [12]): 30 % UTC
3 | 716424 (antisense kG*k[5mC]*kA*dA*dT*dG*dG*dA*d[5mC]*dA*dA*dG*dG*kA*kA*kG) [compound 716424] | 0.36 | 2.08 | 0.15 | 23 | 2077 | 1422 | 20 | 0.22 | 2 | 76 | 69 | 51 | 44 | – | – | – | – | – | –
4 | 716455 (antisense kG*kT*kT*dA*dT*dG*dT*dT*dT*dG*dG*dG*dT*kG*kT*kG) [compound 716455] | 0.32 | 2.66 | 0.14 | 21 | 1089 | 1193 | 22 | 0.25 | – | – | – | – | – | 95 | 70 | 49 | 25 | 1.2 | –
5 | 716480 (antisense kG*k[5mC]*kA*dA*dG*dT*d[5mC]*dT*dT*dG*dT*dA*dA*kG*kT*kA) [compound 716480] | 0.34 | 2.58 | 0.10 | 21 | 2156 | 844 | 19 | 0.14 | – | – | – | – | – | 80 | 56 | 38 | 39 | 1 | –
6 | 716481 (antisense kT*k[5mC]*kA*dG*d[5mC]*dA*dT*dA*dG*dA*dA*dG*dT*kA*kG*kG) [compound 716481] | 0.36 | 1.99 | 0.13 | 22 | 1935 | 2248 | 21 | 0.46 | 2 | 89 | 90 | 58 | 32 | – | – | – | – | – | –
7 | 716502 (antisense k[5mC]*kA*k[5mC]*dA*dG*dT*dG*dA*dT*dT*dG*d[5mC]*dA*kT*kT*kT) [compound 716502] | 0.42 | 2.18 | 0.10 | 23 | 2920 | 1329 | 17 | 0.27 | 0.8 | 73 | 57 | 45 | 30 | – | – | – | – | – | –
8 | 716513 (antisense kA*kA*kT*d[5mC]*dT*dT*dA*dA*dT*d[5mC]*dT*dG*dT*kG*kG*k[5mC]) [compound 716513] | 0.41 | 1.59 | 0.18 | 25 | 325 | 229 | 17 | 0.14 | – | – | – | – | – | 82 | 73 | 39 | 39 | 1.4 | –
9 | 958590 (kA*kG*kG*dT*dA*dT*dA*dA*d[5mC]*dT*dG*dG*dG*k[5mC]*kA*kA) [compound 958590] | – | – | – | – | – | – | – | – | – | – | – | – | – | – | – | – | – | – | ALT [4]: 374 U/L; AST [4]: 360 U/L; BUN [4]: 25 mg/dL; TBIL [4]: 0.16 mg/dL; % UTC (Yap1 mRNA) (Yap1 mRNA [5]; 31.3 nM): 69 % UTC; % UTC (Yap1 mRNA) (Yap1 mRNA [5]; 125.0 nM): 52 % UTC; % UTC (Yap1 mRNA) (Yap1 mRNA [5]; 500.0 nM): 29 % UTC; % UTC (Yap1 mRNA) (Yap1 mRNA [5]; 2000.00 nM): 12 % UTC; IC50 (Yap1 mRNA [5]; linear regression on a log/linear plot): 0.1 µM; Kidney weight [6]: 0.40 g; Liver weight [6]: 1.76 g; Spleen weight [6]: 0.13 g; body weight [6]: 25 g; Yap1 mRNA, % UTC (Yap1 mRNA [7]; 15.6 nM): 71 % UTC; Yap1 mRNA, % UTC (Yap1 mRNA [7]; 62.5 nM): 33 % UTC; Yap1 mRNA, % UTC (Yap1 mRNA [7]; 4000.00 nM): 4 % UTC; IC50 (Yap1 mRNA [7]; A-431 cells, linear regression on log/linear plot): 0.03 µM
